Assay results reported in publication PMC9030254, “Target Hopping from Protein Kinases to PXR: Identification of Small-Molecule Protein Kinase Inhibitors as Selective Modulators of Pregnane X Receptor from TüKIC Library” (Cells, 2022).

Experiments:
Experiment in all cases: Kinase profiling
Type in all cases: biochemical
HIPK2 = target: T1, HIPK2 (Homo sapiens, UniProt Q9H2X6)
T1 construct: purchased ProQinase (Freiburg, Germany)
Protocol: (§1) The analysis was performed by ProQinase (Freiburg, Germany).

MYLK3 = target: T2, MYLK3 (Homo sapiens, UniProt Q32MK0)
T2 construct: purchased ProQinase (Freiburg, Germany)
T2 sequence (Q32MK0 1-819): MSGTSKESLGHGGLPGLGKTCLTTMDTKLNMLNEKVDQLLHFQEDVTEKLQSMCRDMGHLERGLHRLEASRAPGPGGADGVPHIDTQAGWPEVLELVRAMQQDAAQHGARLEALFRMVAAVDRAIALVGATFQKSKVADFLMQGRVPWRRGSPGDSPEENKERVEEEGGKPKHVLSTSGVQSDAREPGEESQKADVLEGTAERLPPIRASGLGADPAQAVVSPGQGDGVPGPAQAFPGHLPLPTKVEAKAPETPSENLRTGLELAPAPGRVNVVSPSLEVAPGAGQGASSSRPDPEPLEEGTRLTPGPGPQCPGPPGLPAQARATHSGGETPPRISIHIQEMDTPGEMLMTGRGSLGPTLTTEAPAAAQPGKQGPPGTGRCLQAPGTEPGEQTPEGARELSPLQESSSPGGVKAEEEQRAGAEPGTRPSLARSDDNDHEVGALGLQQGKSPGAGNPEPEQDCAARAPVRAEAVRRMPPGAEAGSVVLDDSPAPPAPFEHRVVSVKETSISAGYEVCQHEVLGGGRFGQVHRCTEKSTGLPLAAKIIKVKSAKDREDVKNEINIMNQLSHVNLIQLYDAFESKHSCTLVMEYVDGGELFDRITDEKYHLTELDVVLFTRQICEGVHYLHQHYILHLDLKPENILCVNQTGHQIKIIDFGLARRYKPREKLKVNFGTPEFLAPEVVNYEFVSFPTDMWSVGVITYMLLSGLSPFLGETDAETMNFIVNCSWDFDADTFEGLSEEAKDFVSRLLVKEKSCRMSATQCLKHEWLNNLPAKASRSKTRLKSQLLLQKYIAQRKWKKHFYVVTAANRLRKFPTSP
Protocol: as §1

NEK3 = target: T3, NEK3 (Homo sapiens, UniProt P51956)
T3 construct: purchased ProQinase (Freiburg, Germany)
T3 sequence (P51956 1-506): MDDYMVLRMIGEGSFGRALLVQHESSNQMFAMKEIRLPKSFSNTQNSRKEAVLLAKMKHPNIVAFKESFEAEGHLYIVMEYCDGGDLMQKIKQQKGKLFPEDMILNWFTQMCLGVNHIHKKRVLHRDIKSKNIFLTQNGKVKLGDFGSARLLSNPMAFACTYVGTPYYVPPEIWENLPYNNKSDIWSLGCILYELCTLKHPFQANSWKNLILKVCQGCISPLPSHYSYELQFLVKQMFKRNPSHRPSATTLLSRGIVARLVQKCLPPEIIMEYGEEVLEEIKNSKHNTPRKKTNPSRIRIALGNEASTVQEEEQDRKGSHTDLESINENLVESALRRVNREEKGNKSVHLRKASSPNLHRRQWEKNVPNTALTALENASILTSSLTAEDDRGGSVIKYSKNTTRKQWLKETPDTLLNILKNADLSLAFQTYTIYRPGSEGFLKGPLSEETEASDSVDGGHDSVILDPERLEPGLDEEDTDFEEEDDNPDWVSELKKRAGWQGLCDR
Protocol: as §1

MEK5 = target: T4, MEK5 (Homo sapiens, UniProt Q13163)
T4 construct: purchased ProQinase (Freiburg, Germany)
T4 sequence (Q13163 1-448): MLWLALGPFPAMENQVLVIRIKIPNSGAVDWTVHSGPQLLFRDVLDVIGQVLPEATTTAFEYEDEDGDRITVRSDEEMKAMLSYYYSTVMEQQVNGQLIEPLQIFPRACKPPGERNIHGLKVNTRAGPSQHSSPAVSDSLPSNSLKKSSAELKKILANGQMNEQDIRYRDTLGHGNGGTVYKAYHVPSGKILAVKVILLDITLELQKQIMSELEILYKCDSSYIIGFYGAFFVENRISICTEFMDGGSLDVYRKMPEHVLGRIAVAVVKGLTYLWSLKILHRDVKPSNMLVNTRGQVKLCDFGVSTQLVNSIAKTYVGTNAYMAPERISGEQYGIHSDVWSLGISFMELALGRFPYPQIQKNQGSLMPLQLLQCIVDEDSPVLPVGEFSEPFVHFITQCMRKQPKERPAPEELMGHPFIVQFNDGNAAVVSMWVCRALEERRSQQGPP
Protocol: as §1

CAMK2B = target: T5, CAMK2B (Homo sapiens, UniProt Q13554)
T5 construct: purchased ProQinase (Freiburg, Germany)
Protocol: as §1

MARK2 = target: T6, MARK2 (Homo sapiens, UniProt Q7KZI7)
T6 construct: purchased ProQinase (Freiburg, Germany)
Protocol: as §1

EIF2AK2 = target: T7, EIF2AK2 (Homo sapiens, UniProt P19525)
T7 construct: purchased ProQinase (Freiburg, Germany)
Protocol: as §1

CDK17/p35NCK = target: T8, CDK17/p35NCK (Homo sapiens, UniProt Q00537)
T8 construct: purchased ProQinase (Freiburg, Germany)
Protocol: as §1

CDK2/CycA2 = target: T9, CDK2/CycA2 (Homo sapiens, UniProt P24941)
T9 construct: purchased ProQinase (Freiburg, Germany)
Protocol: as §1

PKCgamma = target: T10, PKCgamma (Homo sapiens, UniProt P05129)
T10 construct: purchased ProQinase (Freiburg, Germany)
Protocol: as §1

KIT = target: T11, KIT (Homo sapiens, UniProt P10721)
T11 construct: purchased ProQinase (Freiburg, Germany)
Protocol: as §1

PKCalpha = target: T12, PKCalpha (Homo sapiens, UniProt P17252)
T12 construct: purchased ProQinase (Freiburg, Germany)
Protocol: as §1

T11 sequence (P10721 26-976): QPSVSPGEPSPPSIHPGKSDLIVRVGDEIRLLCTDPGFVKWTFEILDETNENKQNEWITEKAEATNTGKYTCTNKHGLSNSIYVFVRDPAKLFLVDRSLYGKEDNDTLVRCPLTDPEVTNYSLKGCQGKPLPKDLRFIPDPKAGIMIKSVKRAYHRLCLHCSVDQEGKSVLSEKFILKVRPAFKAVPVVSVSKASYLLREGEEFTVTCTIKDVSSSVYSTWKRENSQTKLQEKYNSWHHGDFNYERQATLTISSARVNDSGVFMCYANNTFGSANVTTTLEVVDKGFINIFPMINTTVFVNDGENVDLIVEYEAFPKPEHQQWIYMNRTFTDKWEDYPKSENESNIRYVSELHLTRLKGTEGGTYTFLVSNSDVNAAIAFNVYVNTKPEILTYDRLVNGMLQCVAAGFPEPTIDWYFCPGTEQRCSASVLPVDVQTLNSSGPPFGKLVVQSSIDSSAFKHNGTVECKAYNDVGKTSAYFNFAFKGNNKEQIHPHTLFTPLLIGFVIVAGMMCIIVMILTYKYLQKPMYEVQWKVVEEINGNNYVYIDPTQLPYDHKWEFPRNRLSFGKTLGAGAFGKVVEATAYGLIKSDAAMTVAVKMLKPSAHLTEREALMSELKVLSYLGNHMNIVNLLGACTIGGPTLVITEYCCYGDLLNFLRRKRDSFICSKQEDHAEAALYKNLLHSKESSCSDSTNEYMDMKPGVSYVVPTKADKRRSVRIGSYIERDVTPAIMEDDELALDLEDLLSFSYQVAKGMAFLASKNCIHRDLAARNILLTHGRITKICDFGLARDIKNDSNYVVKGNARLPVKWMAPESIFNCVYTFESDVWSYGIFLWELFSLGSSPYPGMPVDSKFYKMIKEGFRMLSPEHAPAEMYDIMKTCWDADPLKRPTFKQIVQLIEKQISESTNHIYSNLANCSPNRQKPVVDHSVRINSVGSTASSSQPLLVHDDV
T7 sequence (P19525 whole entry): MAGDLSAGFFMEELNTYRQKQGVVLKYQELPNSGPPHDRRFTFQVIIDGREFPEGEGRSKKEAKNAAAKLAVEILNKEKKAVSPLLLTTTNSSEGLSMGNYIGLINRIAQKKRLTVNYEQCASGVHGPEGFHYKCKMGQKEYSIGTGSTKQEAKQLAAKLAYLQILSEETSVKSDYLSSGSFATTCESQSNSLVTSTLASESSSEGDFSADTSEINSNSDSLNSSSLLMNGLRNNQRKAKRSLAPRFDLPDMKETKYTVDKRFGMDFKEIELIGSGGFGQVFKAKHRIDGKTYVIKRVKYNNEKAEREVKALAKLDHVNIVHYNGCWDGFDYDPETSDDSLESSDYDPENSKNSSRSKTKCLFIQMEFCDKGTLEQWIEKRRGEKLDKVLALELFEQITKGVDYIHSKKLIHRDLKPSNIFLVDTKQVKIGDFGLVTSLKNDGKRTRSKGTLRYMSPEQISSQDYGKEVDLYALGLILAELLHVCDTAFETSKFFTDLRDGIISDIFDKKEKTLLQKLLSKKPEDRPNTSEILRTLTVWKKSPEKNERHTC
T1 sequence (Q9H2X6 whole entry): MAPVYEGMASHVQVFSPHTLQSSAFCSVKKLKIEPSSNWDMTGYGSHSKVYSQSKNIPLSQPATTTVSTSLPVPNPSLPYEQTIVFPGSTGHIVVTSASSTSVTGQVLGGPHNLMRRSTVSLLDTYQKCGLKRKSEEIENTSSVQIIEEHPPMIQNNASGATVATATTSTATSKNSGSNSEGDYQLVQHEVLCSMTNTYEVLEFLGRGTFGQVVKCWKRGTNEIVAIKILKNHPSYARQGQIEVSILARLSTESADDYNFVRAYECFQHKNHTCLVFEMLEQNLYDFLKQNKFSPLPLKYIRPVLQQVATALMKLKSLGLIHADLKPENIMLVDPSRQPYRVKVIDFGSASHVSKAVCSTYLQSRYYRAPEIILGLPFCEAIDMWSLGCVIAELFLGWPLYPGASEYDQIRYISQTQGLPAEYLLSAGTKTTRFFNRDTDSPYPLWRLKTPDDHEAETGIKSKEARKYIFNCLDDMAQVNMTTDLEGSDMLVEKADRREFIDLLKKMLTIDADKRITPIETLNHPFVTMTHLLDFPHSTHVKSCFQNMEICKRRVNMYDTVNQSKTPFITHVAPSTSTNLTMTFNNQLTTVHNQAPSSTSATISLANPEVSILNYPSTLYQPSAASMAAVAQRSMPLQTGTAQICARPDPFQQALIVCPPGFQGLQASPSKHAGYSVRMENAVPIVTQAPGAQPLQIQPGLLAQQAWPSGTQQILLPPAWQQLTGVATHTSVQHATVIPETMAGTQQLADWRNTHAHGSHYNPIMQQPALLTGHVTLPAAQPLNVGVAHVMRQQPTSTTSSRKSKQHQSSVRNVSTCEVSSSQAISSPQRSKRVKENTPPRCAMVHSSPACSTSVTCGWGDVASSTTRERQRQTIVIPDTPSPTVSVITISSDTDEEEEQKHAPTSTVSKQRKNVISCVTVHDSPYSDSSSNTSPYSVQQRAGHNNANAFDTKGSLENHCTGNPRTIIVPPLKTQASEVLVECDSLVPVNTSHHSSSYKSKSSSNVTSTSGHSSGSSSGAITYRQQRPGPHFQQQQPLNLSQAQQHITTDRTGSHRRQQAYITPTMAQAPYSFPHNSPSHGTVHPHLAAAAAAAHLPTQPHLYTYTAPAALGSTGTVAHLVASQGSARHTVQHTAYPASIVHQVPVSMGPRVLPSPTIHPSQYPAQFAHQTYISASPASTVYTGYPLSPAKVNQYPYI
T5 sequence (Q13554 whole entry): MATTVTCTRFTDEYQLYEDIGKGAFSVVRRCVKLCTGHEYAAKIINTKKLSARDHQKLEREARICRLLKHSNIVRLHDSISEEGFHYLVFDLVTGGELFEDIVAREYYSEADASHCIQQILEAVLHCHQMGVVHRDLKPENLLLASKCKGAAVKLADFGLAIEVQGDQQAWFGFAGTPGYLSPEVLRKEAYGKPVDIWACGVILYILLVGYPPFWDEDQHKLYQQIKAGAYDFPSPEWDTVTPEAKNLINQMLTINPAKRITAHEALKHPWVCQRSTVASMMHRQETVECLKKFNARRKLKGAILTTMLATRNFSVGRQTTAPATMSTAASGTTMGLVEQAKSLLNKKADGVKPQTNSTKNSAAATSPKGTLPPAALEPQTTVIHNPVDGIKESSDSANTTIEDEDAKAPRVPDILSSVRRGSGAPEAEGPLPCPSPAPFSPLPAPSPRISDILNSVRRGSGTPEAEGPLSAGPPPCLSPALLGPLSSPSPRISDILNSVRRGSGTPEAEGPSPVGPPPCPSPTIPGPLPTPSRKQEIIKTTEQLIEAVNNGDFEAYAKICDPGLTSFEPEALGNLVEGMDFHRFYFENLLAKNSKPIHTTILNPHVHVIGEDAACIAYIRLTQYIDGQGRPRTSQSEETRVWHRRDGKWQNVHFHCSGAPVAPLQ
T8 sequence (Q00537 whole entry): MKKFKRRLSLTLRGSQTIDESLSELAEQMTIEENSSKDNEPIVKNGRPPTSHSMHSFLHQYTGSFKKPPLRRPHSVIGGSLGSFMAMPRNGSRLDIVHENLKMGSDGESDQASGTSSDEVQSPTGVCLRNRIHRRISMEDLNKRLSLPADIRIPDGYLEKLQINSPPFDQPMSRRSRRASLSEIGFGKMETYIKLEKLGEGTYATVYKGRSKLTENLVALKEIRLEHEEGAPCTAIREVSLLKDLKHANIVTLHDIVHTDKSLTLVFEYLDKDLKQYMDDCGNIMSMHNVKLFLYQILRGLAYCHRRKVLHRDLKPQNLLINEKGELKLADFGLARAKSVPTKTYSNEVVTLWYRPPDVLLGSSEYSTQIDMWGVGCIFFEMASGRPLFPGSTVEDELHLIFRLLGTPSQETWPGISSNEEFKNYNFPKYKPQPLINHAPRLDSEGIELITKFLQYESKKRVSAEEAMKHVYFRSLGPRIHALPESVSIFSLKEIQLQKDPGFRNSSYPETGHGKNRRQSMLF
T8 sequence (Q15078 whole entry partner): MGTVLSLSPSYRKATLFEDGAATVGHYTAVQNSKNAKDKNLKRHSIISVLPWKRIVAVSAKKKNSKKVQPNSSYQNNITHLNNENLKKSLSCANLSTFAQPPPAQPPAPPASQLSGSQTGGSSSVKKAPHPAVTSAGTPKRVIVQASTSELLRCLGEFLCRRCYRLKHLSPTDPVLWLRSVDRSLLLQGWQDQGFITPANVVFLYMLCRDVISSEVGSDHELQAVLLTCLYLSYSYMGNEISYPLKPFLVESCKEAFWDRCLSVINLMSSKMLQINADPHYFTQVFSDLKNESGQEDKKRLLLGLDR

SMILES	Residual activity (HIPK2; 1.0E-05 M)	Residual activity (HIPK2; 1.0E-06 M)	Residual activity (MYLK3; 1.0E-05 M)	Residual activity (MYLK3; 1.0E-06 M)	Residual activity (NEK3; 1.0E-05 M)	Residual activity (NEK3; 1.0E-06 M)	Residual activity (MEK5; 1.0E-05 M)	Residual activity (MEK5; 1.0E-06 M)	Residual activity (CAMK2B; 1.0E-05 M)	Residual activity (CAMK2B; 1.0E-06 M)	Residual activity (MARK2; 1.0E-05 M)	Residual activity (MARK2; 1.0E-06 M)	Residual activity (EIF2AK2; 1.0E-05 M)	Residual activity (EIF2AK2; 1.0E-06 M)	Residual activity (CDK17/p35NCK; 1.0E-05 M)	Residual activity (CDK17/p35NCK; 1.0E-06 M)	Residual activity (CDK2/CycA2; 1.0E-05 M)	Residual activity (CDK2/CycA2; 1.0E-06 M)	Residual activity (PKCgamma; 1.0E-05 M)	Residual activity (PKCgamma; 1.0E-06 M)	further results
O=C(Nc1ccc(F)c(Nc2ccc3c(c2)CCCCC3=O)c1)c1cccc(F)c1 [Compound 109]	95 % of control	90 % of control	80 % of control	103 % of control	97 % of control	96 % of control	94 % of control	104 % of control	104 % of control	132 % of control	99 % of control	107 % of control	114 % of control	94 % of control	92 % of control	109 % of control	94 % of control	83 % of control	63 % of control	81 % of control	Residual activity (KIT; 1.0E-05 M): 78 % of control; Residual activity (KIT; 1.0E-06 M): 88 % of control; Residual activity (PKCalpha; 1.0E-05 M): 73 % of control; Residual activity (PKCalpha; 1.0E-06 M): 92 % of control
O=C(Cc1ccccc1)Nc1ccc(F)c(Nc2ccc3c(c2)CCCCC3=O)c1 [Compound 100]	101 % of control	97 % of control	70 % of control	97 % of control	92 % of control	104 % of control	114 % of control	118 % of control	115 % of control	144 % of control	104 % of control	103 % of control	113 % of control	97 % of control	84 % of control	102 % of control	106 % of control	87 % of control	78 % of control	77 % of control	Residual activity (KIT; 1.0E-05 M): 78 % of control; Residual activity (KIT; 1.0E-06 M): 87 % of control; Residual activity (PKCalpha; 1.0E-05 M): 82 % of control; Residual activity (PKCalpha; 1.0E-06 M): 95 % of control
